Data reported in patent publication US20240122847A1, “ORAL POLYPEPTIDE FORMULATIONS” (Bhami's Research Laboratory, Pvt. Ltd., priority 2022, published 2024).
Read-outs that look alike come from different tables or passages of the source.

Key:
[1] = rat, in vivo, sc, 0.04 mg
Method: Pharmacokinetic analysis was conducted in female rats weighing 220-250 grams for 2 days. Rats in the oral treatment group was either fasted overnight or fed prior to the test sample administration. All the test animals in the treatment groups were administered with respective test formulation to the pre-designated animals. The animal was restrained and its head was held vertically, the jaws were pulled away, the tongue was gently lifted with a forceps followed by placement of a polypeptide formulation as described herein buccally/sublingually. After placing a polypeptide formulation as described herein, the snout was held together for about 1-2 mins to prevent the chewing of the polypeptide formulation. The time of dosage of each animal was noted. Blood samples were collected at aforementioned time points 0 min, 15 min, 30 min, 1 hour, 2 hours, 4 hours, 8 hours, 12 hours, 24 hours, and 48 hours into an EDTA-blood collection tubes for the separation of plasma to determine PTH (1-34) levels by ELISA. Plasma samples collected at different time points were analyzed by ELISA kit according to Creative Diagnostics protocol. This kit is based on sandwich enzyme-linked immuno-sorbent assay technology. An antibody, anti-PTH (1-34) was pre-coated onto a 96-well plate. Standards, test samples, and biotin-conjugated reagent were added to the wells and incubated. The HRP-conjugated reagent was then added, and the whole plate was incubated. Unbound conjugates were removed using wash buffer at each stage. TMB substrate was used to quantify the HRP enzymatic reaction. After TMB substrate was added, only wells that contain sufficient PTH (1-34) will produce a blue colored product, which then changes to yellow after adding the acidic stop solution. The intensity of the yellow color is proportional to the PTH (1-34) amount bound on the plate. The Optical Density (OD) was measured spectrophotometrically at 450 nm in a microplate reader, from which the concentration of PTH (1-34) can be calculated.
(§1) PTH (1-34) was analyzed in plasma using a specific enzyme linked immunosorbent assay (ELISA). Pharmacokinetic endpoints were determined using noncompartmental methods using PK Solutions software. AUC was approximated using the trapezoidal rule on the observed concentrations. C max for each PTH (1-34) dose was derived as the maximum of all valid concentrations, and t max was then determined as the corresponding time point to C max. The terminal elimination rate constant (λz) was estimated by log-linear regression on the terminal part of the concentration-time curve, and t ½ was then calculated as t ½=ln 2/λz.

[2] = minipig, in vivo
Method: (§2) Pharmacokinetic analysis was conducted in Female Minipigs weighing 12±1 kg for 2 days. Pigs in the oral treatment group was either fasted overnight or fed prior to the test sample administration. All the test animals in the treatment groups were administered with respective test formulation to the pre-designated animals. The animal was restrained and its head was held vertically, the jaws were pulled away, the tongue was gently lifted with a forceps followed by placement of a polypeptide formulation as described herein buccally/sublingually. After placing a polypeptide formulation as described herein, the snout was held together for about 1-2 mins to prevent the chewing of the polypeptide formulation. The time of dosage of each animal was noted. Blood samples were collected at aforementioned time points 0 min, 5 min, 30 min, 1 hour, 2 hours, 4 hours, 8 hours, and 24 hours into an EDTA-blood collection tubes for the separation of plasma to determine PTH (1-34) levels by ELISA. Plasma samples collected at different time points were analyzed by ELISA kit according to Creative Diagnostics protocol. This kit is based on sandwich enzyme-linked immuno-sorbent assay technology. An antibody, anti-PTH (1-34) was pre-coated onto a 96-well plate. Standards, test samples, and biotin-conjugated reagent were added to the wells and incubated. The HRP-conjugated reagent was then added, and the whole plate was incubated. Unbound conjugates were removed using wash buffer at each stage. TMB substrate was used to quantify the HRP enzymatic reaction. After TMB substrate was added, only wells that contain sufficient PTH (1-34) will produce a blue colored product, which then changes to yellow after adding the acidic stop solution. The intensity of the yellow color is proportional to the PTH (1-34) amount bound on the plate. The Optical Density (OD) was measured spectrophotometrically at 450 nm in a microplate reader, from which the concentration of PTH (1-34) can be calculated.
as §1

[3] = Summary of bioavailability of the formulations of the Examples compared to SC or IV; settings: plasma, other: buccal/sublingual
[4] = Pharmacokinetics of PTH (1-34) in minipigs, sugar truffle buccal/sublingual vs SC, plasma PTH (1-34) ELISA; settings: for AUC(0-inf) / AUC 0-t / AUC(t-inf) extrapolated / MRT inf / AUMC 0-inf_obs / AUMC 0-inf_pred / AUMC 0-t / AUMC t-inf_obs / AUMC t-inf_pred / Clast_obs / Clast_pred / Lambda_z / Tlag / Tlast: minipigs; for Mean PTH (1-34) levels: pigs, GII - Buccal/sublingual 0.49 mg
Method: as §2, §1

[5] = female, Yorkshire, minipig, plasma, 0.49 mg
[6] = female, Yorkshire, minipig, plasma, sc, 0.04 mg

For `CC[C@H](C)[C@H](NC(=O)[C@H](CCC(=O)O)NC(=O)[C@H](CO)NC(=O)[C@@H](NC(=O)[C@@H](N)CO)C(C)C)C(=O)N[C@@H](CCC(N)=O)C(=O)N[C@@H](CC(C)C)C(=O)N[C@@H](CCSC)C(=O)N[C@@H](Cc1cnc[nH]1)C(=O)N[C@@H](CC(N)=O)C(=O)N[C@@H](CC(C)C)C(=O)NCC(=O)N[C@@H](CCCCN)C(=O)N[C@@H](Cc1cnc[nH]1)C(=O)N[C@@H](CC(C)C)C(=O)N[C@@H](CC(N)=O)C(=O)N[C@@H](CO)C(=O)N[C@@H](CCSC)C(=O)N[C@@H](CCC(=O)O)C(=O)N[C@@H](CCCN=C(N)N)C(=O)N[C@H](C(=O)N[C@@H](CCC(=O)O)C(=O)N[C@@H](Cc1c[nH]c2ccccc12)C(=O)N[C@@H](CC(C)C)C(=O)N[C@@H](CCCN=C(N)N)C(=O)N[C@@H](CCCCN)C(=O)N[C@@H](CCCCN)C(=O)N[C@@H](CC(C)C)C(=O)N[C@@H](CCC(N)=O)C(=O)N[C@@H](CC(=O)O)C(=O)N[C@H](C(=O)N[C@@H](Cc1cnc[nH]1)C(=O)N[C@@H](CC(N)=O)C(=O)N[C@@H](Cc1ccccc1)C(=O)O)C(C)C)C(C)C` [PTH (1-34)], the “AUC 0-inf/D_obs” value [1] was 480.625 pg·h/mL/µg, the “AUC 0-inf/D_pred” value [1] was 480.502 pg·h/mL/µg and the Cl/F_obs [1] was 0.002 (μg)/(pg/mL)/h. The Cl/F_pred [1] was 0.002 (μg)/(pg/mL)/h, the Vz/F_obs [1] was 0.013 (μg)/(pg/mL) and the Vz/F_pred [1] was 0.013 (μg)/(pg/mL). For the same molecule, the “AUC 0-inf/D_obs” value ([2]; 0.49 mg) was 13610.915 pg·h/mL/mg, the “AUC 0-inf/D_pred” value ([2]; 0.49 mg) was 13604.805 pg·h/mL/mg and the “AUC 0-t/0-inf_obs” value ([2]; 0.49 mg) was 0.996. The “AUC 0-t/0-inf_pred” value ([2]; 0.49 mg) was 0.997, the Clast_obs/Cmax ([2]; 0.49 mg) was 0.005 and the Clast_pred/Cmax ([2]; 0.49 mg) was 0.005. The “AUC 0-inf/D_obs” value ([2]; sc, 0.04 mg) was 240.561 pg·h/mL/µg, the “AUC 0-inf/D_pred” value ([2]; sc, 0.04 mg) was 240.495 pg·h/mL/µg and the “AUC 0-t/0-inf_obs” value ([2]; sc, 0.04 mg) was 0.996. For the same molecule, the “AUC 0-t/0-inf_pred” value ([2]; sc, 0.04 mg) was 0.996, the Cl/F_obs ([2]; sc, 0.04 mg) was 0.004 (μg)/(pg/mL)/h and the Cl/F_pred ([2]; sc, 0.04 mg) was 0.004 (μg)/(pg/mL)/h. The Clast_obs/Cmax ([2]; sc, 0.04 mg) was 0.002, the Clast_pred/Cmax ([2]; sc, 0.04 mg) was 0.002 and the Vz/F_obs ([2]; sc, 0.04 mg) was 0.027 (μg)/(pg/mL). The Vz/F_pred ([2]; sc, 0.04 mg) was 0.027 (μg)/(pg/mL), the bioavailability [3] was > 7% and the Cmax [4, 5] was 3290 pg/mL. For the same molecule, the MRT last [4, 5] was 1.35 h, the Tmax [4, 5] was 0.08 h and the half-life [4, 5] was 0.977 h. For the same molecule, the level at 5 min [4, 5] was 3290 pg/mL, the level at 0.5 h [4, 5] was 3040 pg/mL and the level at 1 h [4, 5] was 2610 pg/mL. For the same molecule, the level at 2 h [4, 5] was 1240 pg/mL, the level at 4 h [4, 5] was 189 pg/mL and the level at 8 h [4, 5] was 17.8 pg/mL. It also gave an AUC(0-inf) ([4]; female, Yorkshire, minipig, plasma, 0.49 mg, AUC 0-inf_obs, buccal/sublingual) of 6.67 ng·h/mL, an AUC(0-inf) ([4]; female, Yorkshire, minipig, plasma, 0.49 mg, AUC 0-inf_pred, buccal/sublingual) of 6.67 ng·h/mL and an AUC 0-t ([4]; female, Yorkshire, minipig, plasma, 0.49 mg, buccal/sublingual) of 6.64 ng·h/mL. The AUC(t-inf) extrapolated ([4]; female, Yorkshire, minipig, plasma, 0.49 mg, AUC t-inf_obs, buccal/sublingual) was 0.025 ng·h/mL, the AUC(t-inf) extrapolated ([4]; female, Yorkshire, minipig, plasma, 0.49 mg, AUC t-inf_pred, buccal/sublingual) was 0.022 ng·h/mL and the MRT inf ([4]; female, Yorkshire, minipig, plasma, 0.49 mg, MRT 0-inf_obs, buccal/sublingual) was 1.39 h. For the same molecule, the MRT inf ([4]; female, Yorkshire, minipig, plasma, 0.49 mg, MRT 0-inf_pred, buccal/sublingual) was 1.38 h, the bioavailability ([4]; female, Yorkshire, minipig, plasma, other: buccal/sublingual, 0.49 mg) was 6% and the Cmax [4, 6] was 3280 pg/mL. For the same molecule, the MRT last [4, 6] was 2.02 h, the Tmax [4, 6] was 0.5 h and the half-life [4, 6] was 4.55 h. It also gave a level at 0 h [4, 6] of 0.002 pg/mL, a level at 5 min [4, 6] of 394 pg/mL and a level at 0.5 h [4, 6] of 3280 pg/mL. For the same molecule, the level at 1 h [4, 6] was 3260 pg/mL, the level at 2 h [4, 6] was 2990 pg/mL and the level at 4 h [4, 6] was 164 pg/mL. For the same molecule, the level at 8 h [4, 6] was 50 pg/mL, the level at 24 h [4, 6] was 6.43 pg/mL and the AUC(0-inf) ([4]; female, Yorkshire, minipig, plasma, sc, 0.04 mg, AUC 0-inf_obs) was 9.62 ng·h/mL. It also gave an AUC(0-inf) ([4]; female, Yorkshire, minipig, plasma, sc, 0.04 mg, AUC 0-inf_pred) of 9.62 ng·h/mL, an AUC 0-t [4, 6] of 9.58 ng·h/mL and an AUC(t-inf) extrapolated ([4]; female, Yorkshire, minipig, plasma, sc, 0.04 mg, AUC t-inf_obs) of 0.0423 ng·h/mL. For the same molecule, the AUC(t-inf) extrapolated ([4]; female, Yorkshire, minipig, plasma, sc, 0.04 mg, AUC t-inf_pred) was 0.0396 ng·h/mL, the MRT inf ([4]; female, Yorkshire, minipig, plasma, sc, 0.04 mg, MRT 0-inf_obs) was 2.15 h and the MRT inf ([4]; female, Yorkshire, minipig, plasma, sc, 0.04 mg, MRT 0-inf_pred) was 2.14 h. The “AUMC 0-inf_obs” value ([4]; SC, 0.04 mg) was 20668.040 pg/mL*h^2, the “AUMC 0-inf_pred” value ([4]; SC, 0.04 mg) was 20587.700 pg/mL*h^2 and the “AUMC 0-t” value ([4]; SC, 0.04 mg) was 19375.595 pg/mL*h^2. For the same molecule, the “AUMC t-inf_obs” value ([4]; SC, 0.04 mg) was 1292.445 pg/mL*h^2, the “AUMC t-inf_pred” value ([4]; SC, 0.04 mg) was 1212.104 pg/mL*h^2 and the Clast_obs ([4]; SC, 0.04 mg) was 6.435 pg/mL. It also gave a Clast_pred ([4]; SC, 0.04 mg) of 6.035 pg/mL, a Lambda_z ([4]; SC, 0.04 mg) of 0.152 h⁻¹ and a Tlag ([4]; SC, 0.04 mg) of 0.000 h. For the same molecule, the Tlast ([4]; SC, 0.04 mg) was 24.000 h, the “AUMC 0-inf_obs” value ([4]; buccal/sublingual, 0.49 mg) was 9236.909 pg/mL*h^2 and the “AUMC 0-inf_pred” value ([4]; buccal/sublingual, 0.49 mg) was 9208.738 pg/mL*h^2. The “AUMC 0-t” value ([4]; buccal/sublingual, 0.49 mg) was 9001.303 pg/mL*h^2, the “AUMC t-inf_obs” value ([4]; buccal/sublingual, 0.49 mg) was 235.606 pg/mL*h^2 and the “AUMC t-inf_pred” value ([4]; buccal/sublingual, 0.49 mg) was 207.435 pg/mL*h^2. It also gave a Clast_obs ([4]; buccal/sublingual, 0.49 mg) of 17.765 pg/mL, a Clast_pred ([4]; buccal/sublingual, 0.49 mg) of 15.641 pg/mL and a Lambda_z ([4]; buccal/sublingual, 0.49 mg) of 0.709 h⁻¹. The Tlag ([4]; buccal/sublingual, 0.49 mg) was 0.000 h, the Tlast ([4]; buccal/sublingual, 0.49 mg) was 8.000 h and the “Mean PTH (1-34) levels” value ([4]; 0 min) was 0.000 pg/mL. The “Mean PTH (1-34) levels” value ([4]; 24 hour) was 0.000 pg/mL.
